The supplement of paper PMC10307832

What was measured:
Experiment in all cases: relative viability (nuclei count vs DMSO), 5 days (fraction); higher = more cells survive
XMD13-2 + Navitoclax = compound: C1CC1C(=O)NC2=NNC3=C2C=CC(=C3)C4=CC(=CC=C4)C(=O)NC5CC5 [XMD13-2] + CC1(C)CCC(c2ccc(Cl)cc2)=C(CN2CCN(c3ccc(C(=O)NS(=O)(=O)c4ccc(N[C@H](CCN5CCOCC5)CSc5ccccc5)c(S(=O)(=O)C(F)(F)F)c4)cc3)CC2)C1 [Navitoclax] (partner 0.5 µM)
In short: (§1)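 One day after seeding in 1536-well plates, lung cancer cell lines were dosed by pin tool. Dosing was either single-drug or a fixed anchor-drug dose plus five library-drug doses (not always all listed) in √10 steps. After 5 days, nuclei were stained in one fix-and-stain step and counted on 4× images, and relative viability is the nuclei count of treated wells over that of vehicle wells, given as the median of duplicate plates.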

XMD13-2 + Foretinib = compound: C1CC1C(=O)NC2=NNC3=C2C=CC(=C3)C4=CC(=CC=C4)C(=O)NC5CC5 [XMD13-2] + COc1cc2c(Oc3ccc(NC(=O)C4(C(=O)Nc5ccc(F)cc5)CC4)cc3F)ccnc2cc1OCCCN1CCOCC1 [Foretinib] (partner 0.25 µM)
In short: as §1

XMD13-2 + Crizotinib = compound: C1CC1C(=O)NC2=NNC3=C2C=CC(=C3)C4=CC(=CC=C4)C(=O)NC5CC5 [XMD13-2] + C[C@@H](Oc1cc(-c2cnn(C3CCNCC3)c2)cnc1N)c1c(Cl)ccc(F)c1Cl [Crizotinib] (partner 1 µM)
In short: as §1

ALW-II-49-7 + Trametinib = compound: Cc1ccc(C(=O)Nc2cccc(C(F)(F)F)c2)cc1Nc1cncc(C(N)=O)c1 [ALW-II-49-7] + CC(=O)Nc1cccc(-n2c(=O)n(C3CC3)c(=O)c3c(Nc4ccc(I)cc4F)n(C)c(=O)c(C)c32)c1 [Trametinib] (partner 0.02 µM)
In short: as §1

Cell Line | relative viability (XMD13-2 + Navitoclax; first compound 0.05 µM) | relative viability (XMD13-2 + Navitoclax; first compound 0.1581 µM) | relative viability (XMD13-2 + Navitoclax; first compound 0.5 µM) | relative viability (XMD13-2 + Navitoclax; first compound 1.581 µM) | relative viability (XMD13-2 + Navitoclax; first compound 5 µM) | relative viability (XMD13-2 + Foretinib; first compound 0.05 µM) | relative viability (XMD13-2 + Foretinib; first compound 0.1581 µM) | relative viability (XMD13-2 + Foretinib; first compound 0.5 µM) | relative viability (XMD13-2 + Foretinib; first compound 1.581 µM) | relative viability (XMD13-2 + Foretinib; first compound 5 µM) | relative viability (XMD13-2 + Crizotinib; first compound 0.05 µM) | relative viability (XMD13-2 + Crizotinib; first compound 0.1581 µM) | relative viability (XMD13-2 + Crizotinib; first compound 0.5 µM) | relative viability (XMD13-2 + Crizotinib; first compound 1.581 µM) | relative viability (XMD13-2 + Crizotinib; first compound 5 µM) | relative viability (ALW-II-49-7 + Trametinib; first compound 0.08 µM) | relative viability (ALW-II-49-7 + Trametinib; first compound 0.253 µM) | relative viability (ALW-II-49-7 + Trametinib; first compound 0.8 µM) | relative viability (ALW-II-49-7 + Trametinib; first compound 2.53 µM) | relative viability (ALW-II-49-7 + Trametinib; first compound 8 µM)
NCI-H2087 | 1.01 | 1.13 | 1.02 | 0.968 | 0.959 | 1.4 | 1.27 | 1.22 | 1.08 | 0.727 | 0.821 | 0.776 | 0.913 | 0.83 | 0.897 | 0.214 | 0.211 | 0.228 | 0.189 | 0.188
NCI-H2126 | 0.909 | 0.867 | 0.831 | 0.813 | 0.845 | 1.16 | 1.18 | 1.16 | 1.29 | 1.1 | 1.08 | 0.979 | 1.04 | 0.998 | 1.06 | 0.595 | 0.561 | 0.541 | 0.526 | 0.574
NCI-H2170 | 0.761 | 0.577 | 0.577 | 0.569 | 0.475 | 0.937 | 0.97 | 1.03 | 0.9 | 0.984 | 1.27 | 1.17 | 1.34 | 1.19 | 1.16 | 0.925 | 0.937 | 0.977 | 0.924 | 0.854
NCI-H2228 | 1.15 | 0.949 | 0.643 | 0.668 | 0.841 | 0.912 | 1.13 | 0.839 | 0.875 | 1.02 | 0.714 | 0.442 | 0.496 | 0.445 | 0.513 | 0.413 | 0.408 | 0.406 | 0.521 | 0.373
NCI-H2347 | 0.726 | 0.827 | 0.919 | 0.786 | 0.981 | 0.986 | 0.992 | 1.17 | 0.848 | 1.1 | 0.739 | 0.676 | 0.772 | 0.906 | 0.73 | 0.326 | 0.299 | 0.252 | 0.297 | 0.28
NCI-H2405 | 0.871 | 0.727 | 0.9 | 0.767 | 0.916 | 1.09 | 1 | 1.09 | 1.06 | 1.04 | 0.932 | 0.84 | 0.971 | 0.846 | 0.837 | 0.662 | 0.699 | 0.637 | 0.47 | 0.467
